From patent US6262017A, “Peptides for altering osteoblast adhesion” (Research Corporation Technologies, Inc., priority 1998, dated 2001)
Peptide text beside a SMILES is read from it.

Assays:
[1] = tested on: bone marrow derived (BMD) osteoblast-like cells; assay: Bone marrow-derived osteoblast-like cell four-hour adhesion on peptide-modified glass; type: cell-based; conditions: Table 2, peptide immobilized on glass
From the text: (§1) Peptides were immobilized on substrate surfaces (borosilicate glass, 18 mm round coverslips; Fisher) using silane coupling techniques adapted from published protocols [Weetall Applied Biochem. Biotech. 41, 158-188 (1993); Robinson et al. Biochim. Biophys. Acta 242, 659-661 (1971); and Baum et al. Biochim. Biophys. Acta 268, 411-414 (1972)], the disclosures of which are incorporated herein by reference. Briefly, 3-aminopropyltriethoxysilane (Sigma) was allowed to react with hydroxyl groups on the material surfaces to produce "aminophase" substrates.
(§2) In preparing for peptide immobilization, borosilicate glass coverslips (Fisher) were etched for one hour in a 3:1 (v/v) solution of 2 N sulfuric acid and 2 N nitric acid, degreased in acetone and ethanol, and rinsed with distilled water. The degreased and acid-etched substrates were placed in glass petri dishes which had been previously cleaned with a 3.5% solution of 30% hydrogen peroxide in 18 M sulfuric acid.
The substrates were dried at 160° C. for at least one hour, rinsed with dry acetone, and immersed in 2% 3-aminopropyltriethoxysilane in dry acetone, supplemented with 2% triethylamine under an argon atmosphere at […] for one hour. The substrates were rinsed (under an argon atmosphere) once with methylene chloride and twice with dry acetone, and cured under argon at 120° C. for three hours. […]

osteoblasts [2] = assay: Osteoblast four-hour adhesion in the absence and presence of 0.2 U/ml heparinase; type: cell-based; conditions: for Cell density, Average: Table 10, four-hour adhesion
From the text: The heparinase used degrades heparan sulfate in a very selective manner.
as §1, §2
(§3) The substrates were dried at 160° C. for at least one hour, rinsed with dry acetone, and immersed in 2% 3-aminopropyltriethoxysilane in dry acetone, supplemented with 2% triethylamine under an argon atmosphere at […] for one hour. The substrates were rinsed (under an argon atmosphere) once with methylene chloride and twice with dry acetone, and cured under argon at 120° C. for three hours.
(§4) Peptides were covalently bound to immobilized exposed amine groups on the substrate surfaces during a twenty-minute incubation (under argon) with a 25:25:1 (v/v/v) solution of peptide (0.1 mM in dry N,N-dimethylformamide):1-ethyl-3-(3-dimethylaminopropyl)carbodiimide (2.5 mg/mL in dry N,N-dimethylformamide): n-ethylmorpholine. Unreacted amine groups were passivated by soaking peptide-modified substrates in acetic anhydride for 5 minutes; absorbed peptides were then removed by soaking for 5 minutes in 4 M urea, rinsing in distilled water, and soaking for 5 minutes in 1 M sodium chloride. Peptide-modified substrates were then thoroughly rinsed in distilled water prior to sterilization and use.
(§5) In all experiments performed in the present invention, substrates which had been aminated but not peptide-grafted (i.e., aminophase substrates) were used as controls. Substrates which had been etched in a 3:1 (v/v) solution of 2 N sulfuric acid: 2 N nitric acid, degreased in acetone and ethanol, and rinsed copiously with distilled water were used as references. Glass substrates were sterilized via overnight ultraviolet irradiation prior to use in experiments.

calvarial osteoblasts = assay: Calvarial osteoblast two-hour competitive adhesion on KRSRGGG-modified substrates after pre-incubation with soluble peptide; type: cell-based
osteoblasts [3] = assay: Osteoblast four-hour adhesion on peptide-modified glass substrates; type: cell-based
From the text: Using standard protocols, 3-aminopropyltriethoxysilane was used to immobilize exposed amine groups on the surfaces of glass substrates, and 1-ethyl-3-(3dimethylaminopropyl)carbodimide was used to bind peptides having the sequence KRSRGGG (SEQ ID NO:4) to the exposed amine groups on the glass substrates.
as §1, §2, §3, §4
Substrates which had been etched in a 3:1 (v/v) solution of 2 N sulfuric acid: 2 N nitric acid, degreased in acetone and ethanol, and rinsed copiously with distilled water were used as references. Glass substrates were sterilized via overnight ultraviolet irradiation prior to use in experiments.

fibroblasts = assay: Fibroblast adhesion on peptide-modified surfaces; type: cell-based; conditions: surfaces modified with peptide
endothelial cells = assay: Endothelial cell four-hour adhesion on peptide-modified glass; type: cell-based; conditions: for Cell density, Average: four-hour adhesion, peptide immobilized on glass
From the text: as §1, §2, §3, §4, §5

[4] = tested on: BMD osteoclasts (bone-resorbing cells); assay: Four-hour adhesion of Table 3 (title: BMD osteoblast-like cell; text: BMD osteoclasts) on peptide-modified glass; type: cell-based; conditions: for Cell density, Average: Table 3, four-hour adhesion, peptide immobilized on glass
From the text: as §1, §2, §3
as §4, with “use. […]” for “use.”

[5] = tested on: BMD osteoblast-like cells; assay: BMD osteoblast-like two-hour competitive adhesion on KRSRGGG-modified substrates; type: cell-based
Procedure: The effect of pre-incubation of BMD osteoblast-like and osteoclast-like cells was also examined with similar results (Tables 8 and 9).

osteoblasts [6] = conditions: cultured for two weeks on peptide-modified Ti-6Al-4V
From the text: In the present study, medical grade Ti-6Al-4V stock (ASTM F-136; Osteonics) was sectioned into coupons using a low-speed saw equipped with a diamond wafering blade. The metal coupons were then polished to a 30 micron finish via sanding (using 600 grit paper on a sanding wheel), polishing to a 15 micron finish and then to a 9 micron finish (using diamond spray on a polishing wheel), and finally polishing to a 3 micron finish using aluminum oxide (Al2 O3) mixed with 30% hydrogen peroxide on a polishing wheel), according to standard techniques. Polished metal coupons were degreased with acetone and ethanol and rinsed copiously with distilled water before peptides were immobilized on the metal surfaces (via the aforementioned techniques).

[7] = Table 1, peptide immobilized on glass
[8] = Table 6, KRSR peptides of different lengths on glass
[9] = Table 4 (second, identical print)
[10] = Table 8, peptide concentration 0.5 mM
[11] = Table 8, peptide concentration 1.0 mM
[12] = Table 8, peptide concentration 1.5 mM
[13] = Table 8, peptide concentration 2.0 mM

N=C(N)NCCC[C@H](NC(=O)[C@H](CO)NC(=O)[C@H](CCCNC(=N)N)NC(=O)[C@@H](N)CCCCN)C(=O)NCC(=O)NCC(=O)NCC(=O)O [KRSRGGG, H-Lys-Arg-Ser-Arg-(Gly)3 --OH] (H-KRSRGGG-OH)
Cell density, Average [1]: 2332 Cells/cm^2 | Cell density, Average (osteoblasts [2]; Heparinase 0.2 U/ml): 330 Cells/cm^2 | Cell density, Average (osteoblasts [2]; Heparinase none): 2145 Cells/cm^2 | Effect of heparinase treatment on osteoblast adhesion (in words) (osteoblasts [2]; heparinase treatment, peptide-modified substrate): significantly inhibited adhesion | Effect of pre-incubation of osteoblasts with peptide on adhesion to KRSR-modified substrate (in words) (calvarial osteoblasts): significant decrease in adhesion | Cell density, Average (osteoblasts [3]; [7]): 2145 Cells/cm^2 | Cell density, Average (osteoblasts [3]; [8]): 1770 Cells/cm^2 | Fibroblast adhesion to peptide-modified surfaces (in words) (fibroblasts): do not adhere in significantly greater numbers | Cell density, Average (endothelial cells; Table 4 (first print)): 1600 Cells/cm^2 | Cell density, Average (endothelial cells; [9]): 1600 Cells/cm^2 | Endothelial cell adhesion to peptide-modified surfaces (in words) (endothelial cells; surfaces modified with peptide): do not adhere in significantly greater numbers | Cell density, Average [4]: 2377 Cells/cm^2 | BMD osteoclast adhesion versus other treated or untreated surfaces (in words) ([4]; peptide-modified surfaces): in greater numbers | Cell Adhesion expressed as % control [5, 10]: 81.63 % control | Cell Adhesion expressed as % control [5, 11]: 78.91 % control | Cell Adhesion expressed as % control [5, 12]: 66.67 % control | Cell Adhesion expressed as % control [5, 13]: 55.5 % control

N=C(N)NCCC[C@H](NC(=O)[C@H](CO)NC(=O)[C@H](CO)NC(=O)[C@@H](N)CCCCN)C(=O)NCC(=O)NCC(=O)NCC(=O)O [KSSRGGG, Lysine-Serine-Serine-Arginine-Glycine-Glycine-Glycine, reference compound] (H-KSSRGGG-OH)
Cell Adhesion expressed as % control [5, 10]: 109.52 % control | Cell Adhesion expressed as % control [5, 11]: 93.65 % control | Cell Adhesion expressed as % control [5, 12]: 101.59 % control | Cell Adhesion expressed as % control [5, 13]: 107.94 % control

Arginine-Aspartic Acid-Glycine-Serine [RDGS, reference compound]
Cell density, Average [1]: 1712 Cells/cm^2 | Cell density, Average (osteoblasts [2]; Heparinase 0.2 U/ml): 378 Cells/cm^2 | Cell density, Average (osteoblasts [2]; Heparinase none): 1656 Cells/cm^2 | Cell density, Average (osteoblasts [3]; [7]): 1656 Cells/cm^2 | Osteoblast morphology and cytoskeletal organization (osteoblasts [6]): normal morphology and cytoskeletal organization | Cell density, Average (endothelial cells; Table 4 (first print)): 1570 Cells/cm^2 | Cell density, Average (endothelial cells; [9]): 1570 Cells/cm^2 | Cell density, Average [4]: 2188 Cells/cm^2

H-Lys-Arg-Ser-Arg-OH (H-KRSR-OH)
Cell density, Average (osteoblasts [3]; Table 5, KRSR vs HHWH on glass): 1508 Cells/cm^2 | Cell density, Average (osteoblasts [3]; [8]): 1508 Cells/cm^2

Histidine-Histidine-Tryptophan-Histidine (HHWH) [reference compound]
Cell density, Average (osteoblasts [3]; Table 5, KRSR vs HHWH on glass): 1080 Cells/cm^2

KRSRQGGGGG [KRSR peptide of a different (longer) spacer length attached to the substrate]
Cell density, Average (osteoblasts [3]; [8]): 1708 Cells/cm^2
